Results published in ChEMBL document CHEMBL4411343, “Synthesis and biological evaluation of novel N-substituted nipecotic acid derivatives with a cis-alkene spacer as GABA uptake inhibitors” (Bioorg Med Chem, 2019).

Assays:
[1] = biological target: Sodium- and chloride-dependent GABA transporter 2 (Mus musculus); assay: Inhibition of mouse GAT3 expressed in HEK293 cells assessed as reduction in [3H]GABA uptake preincubated for 25 mins followed by [3H]GABA addition and measured after 4 mins by microbeta liquid scintillation counting method
[2] = biological target: Sodium- and chloride-dependent betaine transporter (Mus musculus); assay: Inhibition of mouse GAT2 expressed in HEK293 cells assessed as reduction in [3H]GABA uptake preincubated for 25 mins followed by [3H]GABA addition and measured after 10 mins by microbeta liquid scintillation counting method
[3] = system: Sodium- and chloride-dependent betaine transporter (Mus musculus); assay: Inhibition of mouse GAT2 expressed in HEK293 cells assessed as remaining [3H]GABA uptake at 100 uM preincubated for 25 mins followed by [3H]GABA addition and measured after 10 mins by liquid scintillation counting method relative to control
[4] = biological target: T1, Sodium- and chloride-dependent GABA transporter 1 (Mus musculus, UniProt P31648); assay: Inhibition of mouse GAT1 expressed in HEK293 cells assessed as reduction in [3H]GABA uptake preincubated for 25 mins followed by [3H]GABA addition and measured after 4 mins by microbeta liquid scintillation counting method; format: cell-based
GABA transporter 4 = biological target: T2, GABA transporter 4 (Mus musculus, UniProt P31650); assay: Inhibition of mouse GAT4 expressed in HEK293 cells assessed as reduction in [3H]GABA uptake preincubated for 25 mins followed by [3H]GABA addition and measured after 4 mins by microbeta liquid scintillation counting method; format: cell-based
T2 sequence (P31650 whole entry): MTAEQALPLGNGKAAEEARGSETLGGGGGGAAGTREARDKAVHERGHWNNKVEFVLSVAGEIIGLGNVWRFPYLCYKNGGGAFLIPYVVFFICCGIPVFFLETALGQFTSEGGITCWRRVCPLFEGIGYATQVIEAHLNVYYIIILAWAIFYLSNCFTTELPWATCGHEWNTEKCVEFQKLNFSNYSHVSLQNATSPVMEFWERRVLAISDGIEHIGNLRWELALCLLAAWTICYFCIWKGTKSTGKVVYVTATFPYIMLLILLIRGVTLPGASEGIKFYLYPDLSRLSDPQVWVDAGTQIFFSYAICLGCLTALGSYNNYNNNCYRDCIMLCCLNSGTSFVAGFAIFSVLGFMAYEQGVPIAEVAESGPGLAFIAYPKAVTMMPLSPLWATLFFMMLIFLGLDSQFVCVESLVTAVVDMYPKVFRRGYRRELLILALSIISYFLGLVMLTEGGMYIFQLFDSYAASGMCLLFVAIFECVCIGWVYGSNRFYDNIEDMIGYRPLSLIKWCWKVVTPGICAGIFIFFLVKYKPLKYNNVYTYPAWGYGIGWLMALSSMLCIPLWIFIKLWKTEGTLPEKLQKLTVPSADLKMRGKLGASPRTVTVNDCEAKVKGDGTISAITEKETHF

[5] = system: Sodium- and chloride-dependent GABA transporter 2 (Mus musculus); assay: Inhibition of mouse GAT3 expressed in HEK293 cells assessed as remaining [3H]GABA uptake at 100 uM preincubated for 25 mins followed by [3H]GABA addition and measured after 4 mins by liquid scintillation counting method relative to control
[6] = biological target: T1, Sodium- and chloride-dependent GABA transporter 1; assay: Displacement of NO711 from mouse GAT1 expressed in stable HEK293 cell membranes preincubated for 10 mins followed by NO711 addition and measured after 40 mins by LC-ESI-MS/MS analysis
[7] = biological target: T1, Sodium- and chloride-dependent GABA transporter 1; assay: Inhibition of mouse GAT1 expressed in HEK293 cells assessed as remaining [3H]GABA uptake at 100 uM preincubated for 25 mins followed by [3H]GABA addition and measured after 4 mins by liquid scintillation counting method relative to control; format: cell-based; details: read-out: Activity
[8] = biological target: T3, GABA transporter 4 (Mus musculus) (UniProt P31650); assay: Inhibition of mouse GAT4 expressed in HEK293 cells assessed as remaining [3H]GABA uptake at 100 uM preincubated for 25 mins followed by [3H]GABA addition and measured after 4 mins by liquid scintillation counting method relative to control; format: cell-based
T3 sequence (whole entry): T2 sequence (P31650 whole entry)

[9] = biological target: T1, Sodium- and chloride-dependent GABA transporter 1; assay: Displacement of NO711 from mouse GAT1 expressed in stable HEK293 cells assessed as remaining specific NO711 binding level preincubated at 100 uM for 10 mins followed by NO711 addition and measured after 40 mins by LC-ESI-MS/MS analysis; format: cell-based; details: read-out: Activity

| SMILES | pIC50 [1] | pIC50 [2] | activity at 100 µM [3] [%] | IC50 [4] [µM] | IC50 (GABA transporter 4) [µM] | activity at 100 µM [5] [%] | Ki [6] [µM] | activity at 100 µM [7] [%] | Activity [8] [%] | activity at 100 µM [9] [%] |
| --- | --- | --- | --- | --- | --- | --- | --- | --- | --- | --- |
| COc1ccc(C(C#CCN2CCCC(C(=O)O)C2)(c2ccc(OC)cc2)c2ccc(OC)cc2)cc1 (racemic) | 4.61 | 4.36 | – | – | – | – | – | – | – | – |
| O=C(O)C1CCCN(C/C=C\CC(c2ccccc2)(c2ccccc2)c2ccccc2)C1 (racemic) | – | – | 70 | 1 | 15.1 | 56 | 0.513 | – | – | – |
| COc1ccc(C(/C=C\CN2CCCC(C(=O)O)C2)c2ccc(OC)cc2)cc1 (racemic) | – | – | 68 | – | 49 | 72 | 26.3 | 62 | – | – |
| COc1ccc(CC(/C=C\CN2CCCC(C(=O)O)C2)(c2ccc(OC)cc2)c2ccc(OC)cc2)cc1 (racemic) | – | – | 65 | 74.1 | 57.5 | – | 25.7 | – | – | – |
| COc1ccc(C(/C=C\CN2CCCC(C(=O)O)C2)(c2ccc(OC)cc2)c2nccs2)cc1 (racemic) | – | – | 67 | – | – | 78 | – | 69 | 83 | 78 |
| COc1ccc(C(/C=C\CCN2CCCC(C(=O)O)C2)(c2ccc(OC)cc2)c2ccc(OC)cc2)cc1 (racemic) | – | – | 63 | 30.9 | 16.2 | – | 23.4 | – | – | – |
| COc1ccc(C(/C=C\CN2CCCC(C(=O)O)C2)(c2ccc(OC)cc2)c2ccc(OC)cc2)cc1 (racemic) | – | – | – | – | – | – | 17.8 | – | – | – |
| COc1ccc(C(/C=C\CN2CCCC(C(=O)O)C2)(Cc2ccccc2)c2ccc(OC)cc2)cc1 (racemic) | – | – | – | 38 | 63.1 | 57 | 41.7 | – | – | – |
| O=C(O)C1CCCN(CC/C=C\C(c2ccccc2)(c2ccccc2)c2ccccc2)C1 (racemic) | – | – | – | 40.7 | 17.4 | – | 7.41 | – | – | – |
| COc1ccc(C(/C=C\CN2CCCC(C(=O)O)C2)(c2ccc(OC)cc2)c2ccsc2)cc1 (racemic) | – | – | – | 79.4 | 33.1 | 49 | – | – | – | 62 |
| COc1ccc(C(/C=C\CN2CCCC(C(=O)O)C2)(c2ccc(OC)cc2)c2ccc3c(c2)OCO3)cc1 (racemic) | – | – | – | 95.5 | 10 | – | 53.7 | – | – | – |
| COc1ccc(C(C/C=C\CN2CCCC(C(=O)O)C2)(c2ccc(OC)cc2)c2ccc(OC)cc2)cc1 (racemic) | – | – | 52 | 41.7 | 61.7 | – | 24 | – | – | – |
| COc1ccc(C(O)(/C=C\CN2CCCC(C(=O)O)C2)c2ccc(OC)cc2)cc1 (racemic) | – | – | 85 | – | – | 97 | – | 81 | 80 | 53 |
